Article PMC6470675, “Design and Synthesis of New Quinoxaline Derivatives as Anticancer Agents and Apoptotic Inducers” (Molecules, 2019)

Experiments:
[1] = target: T1, VEGFR-2 (Homo sapiens, UniProt P35968); details: cited from earlier work
T1 construct: purchased Bio Science Corporation (BPS), San Diego, CA, USA

[2] = tested on: HCT116 human colon carcinoma cell line; test: In vitro cell proliferation (MTT) assay, HCT116; assay type: cell-based; details: Homo sapiens, HCT-116; MTT, 72 h exposure
Method: (§1) The targeted compounds were tested for their in-vitro anti-cancer activity against three tumor cell lines (HCT116, Hep G2 and MCF-7). Doxorubicin was included in the experiments as a reference cytotoxic compound. Exponentially growing cells from different cancer cell lines were trypsinized, counted and seeded at the appropriate densities into 96-well microtiter plates. Cells then were incubated in a humidified atmosphere at 37 °C for 24 h. Then, cells were exposed to different concentrations of compounds for 72 h. Then the viability of treated cells was determined using MTT technique (described latter).
(§2) Three cancer cell lines including human colon carcinoma (HCT116), human breast adenocarcinoma (MCF-7) and human hepatocellular carcinoma (Hep G2), were purchased from American Type Cell Culture Collection (ATCC, Manassas, VA, USA) and grown on the appropriate growth medium Dulbecco’s modified Eagle’s medium (DMEM) or Roswell Park Memorial Institute medium (RPMI 1640) supplemented with […] of streptomycin, 100 units/mL of penicillin and 10% of heat-inactivated fetal bovine serum in a humidified, 5% (v/v) CO2 atmosphere at 37 °C [34]. Cytotoxicity assay by 3-[4,5-dimethylthiazole-2-yl]-2,5-diphenyltetrazolium bromide (MTT).
(§3) Exponentially growing cells from different cancer cell lines were trypsinized, counted and seeded at the appropriate densities (2000–1000 cells/0.33 cm^2 well) into 96-well microtiter plates. Cells then were incubated in a humidified atmosphere at 37 °C for 24 h. Then, cells were exposed to different concentrations of compounds (0.1, 10, 100, 1000 µM) for 72 h. Then the viability of treated cells was determined using MTT technique as follow. Media were removed; cells were incubated with 200 μL of 5% MTT solution/well (Sigma Aldrich, Darmstadt, Germany) and were allowed to metabolize the dye into a colored-insoluble formazan crystal for 2 h. The remaining MTT solution were discarded from the wells and the formazan crystals were dissolved in 200 µl/well acidified isopropanol for 30 min, covered with aluminum foil and with continuous shaking using a MaxQ 2000 plate shaker (Thermo Fisher Scientific Inc, Waltham, MA, USA) at room temperature. Absorbance were measured at 570 nm using a Stat Fax^R 4200 plate reader (Awareness Technology, Inc., Awareness Technology, FL, USA). The cell viability was expressed as percentage of control and the concentration that induces 50% of maximum inhibition of cell proliferation (IC50) were determined using Graph Pad Prism version 5 software (Graph Pad Software Inc, San Diego, CA, USA) (1,2).

[3] = target: T1, VEGFR-2; test: In vitro VEGFR-2 inhibition assay (Kinase-Glo Plus luminescence); assay type: biochemical
Method: In an attempt to investigate the possible mechanism of action of the synthesized compounds based on structural similarity with sorafenib, all of them were tested for VEGFR-2 inhibitory activity at Bio Science Corporation (BPS, San Diego, CA, USA). The assay was performed using the Kinase-Glo Plus luminescence kinase assay kit (Promega, San Diego, CA, USA). It measures kinase activity by quantitating the amount of ATP remaining in solution following a kinase reaction. […].
The in-vitro enzyme inhibition determination for the synthesized compounds was carried out at Bio Science Corporation (BPS)-San Diego, CA, USA. The assay was performed using Kinase-Glo Plus luminescence kinase assay kit (Promega), where the kinase activity was measured by quantitating the amount of ATP remaining in solution following a kinase reaction. The luminescent signal from the assay is correlated with the amount of ATP present and is inversely correlated with the amount of kinase activity. Our compounds were diluted with 10% DMSO and 5 µL of the dilution was added to a 50 µL reaction so that the final concentration of DMSO is 1% in all of reactions. All of the enzymatic reactions were conducted at 30 °C for 40 min. The 50 µL reaction mixture contains 40 mM Tris, pH 7.4, 10 mM MgCl2, 0.1 mg/mL BSA, 1 mM DTT, 10 µM ATP, Kinase substrate and the enzyme. After the enzymatic reaction, 50 µL of Kinase-Glo Plus Luminescence kinase assay solution (Promega San Diego, CA, USA) was added to each reaction and incubate the plate for 5 min at room temperature. Luminescence signal was measured using a BioTek Synergy 2 microplate reader.
Kinase activity assays were performed in duplicate at each concentration. The luminescence data were analyzed using the computer software, Graphpad Prism. The difference between luminescence intensities in the absence of Kinase (Lut) and in the presence of Kinase (Luc) was defined as 100% activity (Lut − Luc). Using luminescence signal (Lu) in the presence of the compound, % activity was calculated as:% activity = {(Lut − Lu)(Lut − Luc)} × 100% where Lu = the luminescence intensity in the presence of the compound.

[4] = tested on: HCT116 cells; test: Cell cycle analysis by flow cytometry; assay type: cell-based, human; details: 2.5 µM
Method: The effect of compound VIIIc on the normal cell cycle progression was characterized using flow cytometric analysis of the DNA ploidy in HCT116 cells Figure 3. […] The observed increase in pre-G cell population may imply DNA fragmentation and apoptosis as a potential mechanism for VIIIc-induced cancer cell death.
HCT116 cells at a density of 4 × 10^6 cell/T 75 flask were exposed to 1-(4-Chlorophenyl)-3-(4-((3-methylquinoxalin-2-yl)amino)phenyl)urea VIIIc at its IC50 concentration for 24 and 48 h. The cells then were collected by trypsinization, washed with phosphate buffered saline (PBS), and fixed in ice-cold absolute alcohol. Thereafter, cells were stained, using Cycle test ^TM Plus DNA Reagent Kit (BD Biosciences, San Jose, CA, USA), according to the manufacturer’s instructions. Cell cycle distribution was determined using a FACS Calibur flow cytometer (BD Biosciences).

[5] = tested on: MCF-7 human breast adenocarcinoma cell line; test: In vitro cell proliferation (MTT) assay, MCF-7; assay type: cell-based; details: Homo sapiens, MCF7; MTT, 72 h exposure
Method: as §1, §2, §3

[6] = tested on: fibroblast-like fetal lung cell line (WI-38); test: In vitro MTT cytotoxicity assay on normal WI-38 cells
Method: Cell Line cells were obtained from American Type Culture Collection, cells were cultured using DMEM (Invitrogen/Life Technologies, Waltham, MA, USA) supplemented with 10% FBS (Hyclone, Waltham, MA, USA), 10 μg/mL of insulin (Sigma), and 1% penicillin-streptomycin. All of the other chemicals and reagents were from Sigma, or Invitrogen. Plate cells (cells density 1.2–1.8 × 10,000 cells/well) in a volume of 100 µL complete growth medium + 100 μL of the tested compound per well in a 96-well plate for 24 h before the MTT assay.

[7] = tested on: Hep G2 human hepatocellular carcinoma cell line; test: In vitro cell proliferation (MTT) assay, Hep G2; assay type: cell-based
Method: as §1, §2, §3

[8] = tested on: HCT116 cells; test: Annexin V-FITC/PI apoptosis determination; assay type: cell-based, human; details: IC50 (2.5 µM), 24 h and 48 h, compared to DMSO treated cells
Source text: For further investigation of the ability of compound VIIIc to induce apoptosis, an Annexin V (conjugated to FITC) apoptosis detection kit was employed. This assay detects phosphatidylserine (PS) expressed on the surface of apoptotic cells and fluoresces green after interacting with the labeled annexin V. During early apoptosis, membrane asymmetry is lost, and PS translocates from the cytoplasmic side of the membrane to the external leaflet. Propidium iodide (PI), the counterstain used in this assay, has the ability to cross only compromised membranes to intercalate into the DNA. Therefore, PI is used to detect the late stages of apoptosis by presence of red fluorescence.
Apoptosis was determined by staining cells with Annexin V–fluorescein isothiocyanate (FITC) and counterstaining with propidium iodide (PI) using the Annexin V–FITC/PI apoptosis detection kit (BD PharMingen, San Diego, CA, USA) according to the manufacturer’s instructions. Briefly, 4 × 10^6 cell/T 75 flask were exposed to compound VIIIc at its IC50 concentration for 24 and 48 h. The cells then were collected by trypsinization and 0.5 × 10^6 cells were washed twice with phosphate-buffered saline (PBS) and stained with 5 μL Annexin V–FITC and 5 μL PI in 1× binding buffer (BD PharMingen) for 15 min at room temperature in the dark. Analyses were performed using FACS Calibur flow cytometer (BD Biosciences).

[9] = tested on: three tumor cell lines (HCT116, Hep G2 and MCF-7); test: In vitro anti-cancer activity stated for the tested cell lines together; assay type: cell-based, human; details: HCT116, Hep G2 and MCF-7 together
Method: as §1, §2
Exponentially growing cells from different cancer cell lines were trypsinized, counted and seeded at the appropriate densities (2000–1000 cells/0.33 cm^2 well) into 96-well microtiter plates. Cells then were incubated in a humidified atmosphere at 37 °C for 24 h. Then, cells were exposed to different concentrations of compounds (0.1, 10, 100, 1000 µM) for 72 h. Then the viability of treated cells was determined using MTT technique as follow. Media were removed; cells were incubated with 200 μL of 5% MTT solution/well (Sigma Aldrich, Darmstadt, Germany) and were allowed to metabolize the dye into a colored-insoluble formazan crystal for 2 h. […] Absorbance were measured at 570 nm using a Stat Fax^R 4200 plate reader (Awareness Technology, Inc., Awareness Technology, FL, USA). […]

T1 sequence (P35968 20-1356): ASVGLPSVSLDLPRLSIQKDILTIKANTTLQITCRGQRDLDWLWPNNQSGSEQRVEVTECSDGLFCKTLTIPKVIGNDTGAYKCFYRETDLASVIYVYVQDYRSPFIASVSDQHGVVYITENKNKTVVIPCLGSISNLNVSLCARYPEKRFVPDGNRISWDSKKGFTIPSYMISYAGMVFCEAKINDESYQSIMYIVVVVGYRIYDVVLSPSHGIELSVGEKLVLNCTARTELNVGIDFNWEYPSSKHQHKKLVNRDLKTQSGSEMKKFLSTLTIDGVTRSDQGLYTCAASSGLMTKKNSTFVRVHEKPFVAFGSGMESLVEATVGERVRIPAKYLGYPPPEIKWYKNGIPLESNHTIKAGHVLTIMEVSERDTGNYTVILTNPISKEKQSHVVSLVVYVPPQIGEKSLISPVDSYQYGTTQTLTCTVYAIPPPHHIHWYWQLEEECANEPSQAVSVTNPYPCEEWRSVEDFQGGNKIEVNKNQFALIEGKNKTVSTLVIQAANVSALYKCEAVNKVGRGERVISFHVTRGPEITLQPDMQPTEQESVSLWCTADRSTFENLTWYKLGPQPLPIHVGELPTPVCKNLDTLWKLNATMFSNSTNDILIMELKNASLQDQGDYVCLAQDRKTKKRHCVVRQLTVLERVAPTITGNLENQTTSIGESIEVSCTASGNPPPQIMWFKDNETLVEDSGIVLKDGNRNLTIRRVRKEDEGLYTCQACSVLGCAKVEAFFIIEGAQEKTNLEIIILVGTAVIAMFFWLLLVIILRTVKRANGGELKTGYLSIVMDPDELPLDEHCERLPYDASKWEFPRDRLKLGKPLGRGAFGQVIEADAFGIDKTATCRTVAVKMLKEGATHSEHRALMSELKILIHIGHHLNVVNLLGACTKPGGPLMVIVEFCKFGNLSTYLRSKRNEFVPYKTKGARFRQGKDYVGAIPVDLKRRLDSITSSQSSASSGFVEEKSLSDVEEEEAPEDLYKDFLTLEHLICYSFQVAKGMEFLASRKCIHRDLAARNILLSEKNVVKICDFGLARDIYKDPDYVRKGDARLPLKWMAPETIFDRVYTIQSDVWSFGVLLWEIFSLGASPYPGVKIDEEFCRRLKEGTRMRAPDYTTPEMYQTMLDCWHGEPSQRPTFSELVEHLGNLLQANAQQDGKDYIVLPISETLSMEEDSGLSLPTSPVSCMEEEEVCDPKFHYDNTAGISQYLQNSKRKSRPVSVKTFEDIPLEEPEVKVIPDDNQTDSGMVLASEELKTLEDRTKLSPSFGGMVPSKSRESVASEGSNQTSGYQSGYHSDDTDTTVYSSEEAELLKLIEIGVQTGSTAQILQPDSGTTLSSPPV

IC50 [2] [µM] | activity against VEGFR-2 (in words) ([3]; 10 µM) | inhibition at 10 µM ([3]; single concentration of 10 µM, read-out: % of VEGFR-2 Inhibition) [%] | IC50 [5] [µM] | IC50 ([7]; Homo sapiens, HepG2, MTT, 72 h exposure) [µM] | SMILES | inhibition percentage against VEGFR-2 [1] [%] | effect on cell cycle profile (in words) ([4]; 24 h) | effect on cell cycle profile (in words) ([4]; 48 h) | selectivity as anti-cancer agent (in words), from WI-38 IC50 [6] | IC50 ([6]; read-out: IC50 on WI-38 cell line, MTT, normal cell line) [µM] | anti-cancer activity against Hep G2 cell line (in words) [7] | annexin-V positive cells (in words) [8] | activity against the tested cell lines (in words) [9]
 |  |  |  |  | COc1ccc(Nc2nc3ccc(NC(=O)c4ccccc4C(=O)O)cc3[nH]c2=O)cc1 [Compound 4] | 69 |  |  |  |  |  |  | 
2.5 | weak activity | 7 | 9 | 22 | Cc1nc2ccccc2nc1Nc1ccc(NC(=O)Nc2ccc(Cl)cc2)cc1 [Compound VIIIc, 1-(4-Chlorophenyl)-3-(4-((3-methylquinoxalin-2-yl)amino)phenyl)urea] |  | increase in G1 phase | cell cycle arrest at G2/M phase boundary | moderate selectivity | 97.2 ± 5.66 | moderate activity | increased the percentage of annexin-V positive cells | promising activity
